ChEMBL document CHEMBL5728247, “Kinase inhibitors for the treatment of disease” (2021)

Each molecule was assayed against Tyrosine-protein kinase BTK (Homo sapiens, UniProt Q06187) (assay: Kinase Assay: 1. Optimization of kinase concentration required to determine ATP Km,app. The assay was first performed at a high concentration of ATP (1 mM) against a dilution series of kinase in order to determine the amount of kinase required to elicit an approximately 80% change between the minimum and maximum TR-FRET emission ratios (the EC80 value).2. Determination of ATP Km,app. Using the concentration of enzyme determined in step 1, the assay was then performed against a dilution series of ATP in order to determine the amount of ATP required to elicit a 50% change between the minimum and maximum TR-FRET emission ratios (the EC50 value). This concentration of ATP was referred to as the “apparent” Km value for ATP, or the ATP Km,app.3. Optimization of kinase concentration required for assay at ATP Km,app. Using the ATP Km,app concentration of ATP determined in step 2, the kinase titration was repeated in order to determine the concentration of kinase required to elicit an approximately 80% change between the minimum and maximum TR-FRET emission ratios at the ATP Km,app concentration of ATP (the EC80 value). This was the concentration of kinase that will be used in an assay to determine an IC50 value for a compound of the invention.).
Chain of Tyrosine-protein kinase BTK (Q06187 whole entry): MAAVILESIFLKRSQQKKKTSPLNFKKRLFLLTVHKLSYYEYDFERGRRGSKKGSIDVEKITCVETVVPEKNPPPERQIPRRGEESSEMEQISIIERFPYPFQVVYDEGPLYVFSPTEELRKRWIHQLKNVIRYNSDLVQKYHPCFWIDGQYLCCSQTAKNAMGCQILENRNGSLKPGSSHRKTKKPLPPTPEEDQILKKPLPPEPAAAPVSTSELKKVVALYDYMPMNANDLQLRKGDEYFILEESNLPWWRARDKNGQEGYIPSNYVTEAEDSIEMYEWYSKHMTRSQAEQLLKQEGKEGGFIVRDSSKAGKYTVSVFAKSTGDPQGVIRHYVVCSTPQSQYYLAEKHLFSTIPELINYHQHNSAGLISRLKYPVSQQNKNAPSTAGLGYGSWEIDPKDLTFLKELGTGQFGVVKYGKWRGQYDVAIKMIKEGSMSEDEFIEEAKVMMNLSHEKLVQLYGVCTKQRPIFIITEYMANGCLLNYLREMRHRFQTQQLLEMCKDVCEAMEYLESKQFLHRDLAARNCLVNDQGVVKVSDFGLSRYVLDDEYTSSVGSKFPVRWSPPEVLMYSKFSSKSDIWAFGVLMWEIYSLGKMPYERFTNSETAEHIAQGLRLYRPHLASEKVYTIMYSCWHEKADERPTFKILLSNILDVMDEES
`C=CC(=O)Nc1cccc(N(C(=O)OCc2ccccc2)c2ccnc(Nc3cnn(CCN4CCOCC4)c3)n2)c1` gave an IC50 of 5.74 nM.
`C=CC(=O)Nc1cccc(N(C(=O)OCc2ccccc2)c2ccnc(Nc3cnn(C)c3)n2)c1` gave an IC50 of 5.13 nM.
With `C=CC(=O)Nc1cccc(N(C(=O)OCc2ccccc2)c2ccnc(Nc3cnn(C4CCOCC4)c3)n2)c1` the IC50 was 3.12 nM.
